The assay deals with ddY mice. The assay can be described thus: Tail suspension test (evaluation of motivation-enhancing effect). The format is in vivo. To be noted: oral, in saline, n=5; 0.2 μmol/kg body weight; tail suspension test 30 minutes after administration. The protocol:
Each of the prepared peptides was administered to mice (ddY mice (5-week-old male mice 24 to 28 g in body weight)) by the method shown below. The mice were then subjected to a tail suspension test for the evaluation of a motivation-enhancing effect.
Each peptide was dissolved in saline. The solution was orally administered to mice (n=5) such that each of peptides 3, 4, and 8 was administered in a dose of 0.3 mg/kg body weight and each of peptides 1, 2, 5, 6, and 7 was administered in a dose of 0.2 μmol/kg body weight. Control mice (n=5) were orally administered with only saline. Each of the mice was subjected to a tail suspension test in which the peptide of the present invention was evaluated for its efficacy to enhance motivation.
Thirty minutes after the administration of the peptide, each mouse was suspended with its tail fixed 30 cm above the floor. Subsequently, during a period of 6 minutes from the start of the test (0 minutes), the time (immobility time) during which the mouse remained in a motionless state, observed after the start of escape behavior, was measured, and the measurements were averaged. The motionless state is known as “despair state”. […] This means that materials effective in enhancing motivation in this test may be effective in treating, preventing, or ameliorating mood disorders. […]

QSQ [Peptide 1]: the motivation-enhancing effect entry is reported as “particularly high level of motivation-enhancing effect”. The same measure for SQK [Peptide 2]: “particularly high level of motivation-enhancing effect”.

Values taken from US20220370546A1, “PEPTIDE, COMPOSITION, AND METHOD FOR TREATING, PREVENTING, OR AMELIORATING MOOD DISORDER” (KYOTO UNIVERSITY, priority 2019, published 2022).
